In PMC10233092, “Selective Janus kinase 1 inhibition resolves inflammation and restores hair growth offering a viable treatment option for alopecia areata” (Skin Health and Disease, 2023):
Like-named read-outs stand apart in the source and are kept apart here.

Legend:
[1] = tested on: Human Peripheral Blood Mononuclear Cells (PBMCs); experiment: Cytokine release from anti-CD3-stimulated human PBMCs; assay type: cell-based; details: anti-CD3, 40-48h, 4 healthy donors, linear regression
Description: Human Peripheral Blood Mononuclear Cells (PBMCs) were isolated by Sepmate technique (Stemcell Technologies) from heparinized venous blood from healthy volunteers. Primary human CD8^+ T‐cells were further isolated using a CD8^+ T cell Isolation Kit according to protocol (Miltenyi Biotec). Experiments were approved by the local ethical committee in Gothenburg (033‐11).
Soluble anti‐CD28 were added to the CD8^+ cultures to facilitate co‐stimulation. After 40–48 h, supernatants were harvested for mediator analysis and the cells were washed and resuspended in RLT buffer (Qiagen) for RNA isolation.
Analysis of human cytokine panels was carried out using a Luminex assay kit from Merck Millipore (Cat# HCYTMAG‐60K‐PX41) and Mesoscale Discovery (MSD) immunoassay kits (Cat# K211AEB‐2 and K15049D) as recommended in the respective supplier protocols.

[2] = C3H/HeJ, mouse, in vivo
[3] = tested on: C3H/HeJ mouse model of AA; experiment: Circulating cytokines in mouse plasma, Luminex; assay type: in vivo; details: at 4 weeks
Description: A Luminex assay kit from Merck Millipore (Cat# MTH17MAG‐47K) was used and the analysis carried out according to the supplier protocols.

[4] = tested on: C3H/HeJ mouse model of AA; experiment: Cellularity and flow cytometry of spleen and skin draining lymph nodes; assay type: in vivo; details: AA mice
Description: Cutaneous lymph nodes and spleens from mice treated either orally or topically (treated and untreated side, respectively) were pooled and minced in DPBS/2% FBS/2 mM EDTA, filtered through […] strainers and spun at 350 g for 5 min. Blood was collected in EDTA‐coated tubes and red blood cells were lysed using BD FACS lysing solution (as was red blood cells from spleen single cell suspensions). Cell differential were obtained from haematology analyzer Sysmex XE‐2100 (Sysmex Corporation, Japan). Equal cell numbers for each sample were incubated with anti‐mouse CD16/CD32 block to prevent unspecific binding and then stained for 30 min at 4°C with the following anti‐mouse antibodies (all from BD); FITC CD3e (145‐2C11), APC‐Cy7 TCRβ (H‐57‐597), BV510 or BV786 CD8α (53‐6.7), BV711 NKG2D (Cx5), BUV395 CD4 (GK1.5), BV711 or BV605 CD44 (IM7), BUV395 CD45 (30‐F11), PerCP‐Cy5.5 CD19 (1D3) and PE‐Cy7 CD62L (MEL‐14). […] The cells were analyzed on a BD LSRII flow cytometer and analysis was performed with FlowJo (Tree Star) software.

[5] = Local JAK1i group, Mean±95% CI, n=6
[6] = Systemic JAK1i group, Mean±95% CI, n=6

Q: Which “release of TNFα, IL-1RA, IP-10, IL-17 and MIP-1β from PBMC compared with Ruxo and Tofa” value [1] does the source give for Cc1cnc(Nc2cccnc2F)nc1-c1c[nH]c2c(NC(=O)[C@@H](C)N3CCN(C)CC3)cccc12 [Cmpd A] here?
A: significantly differently released

Q: With COCC(C(=O)Nc1cccc2c(-c3nc(Nc4cccc(S(C)(=O)=O)c4F)ncc3F)c[nH]c12)N1CCN(C)CC1 (centres unmarked) [Cmpd C] as the compound, how does the “estimated average free exposure in plasma over IC50” value [2] read?
A: 0.02 fold IC50

Q: What about the “estimated average free exposure in skin over IC50” value [2] of the same compound?
A: 0.43 fold IC50

Q: And the “estimated average free exposure in plasma over IC50” value ([2]; po, 2 weeks)?
A: 1.4 fold IC50

Q: What about the “estimated average free exposure in skin over IC50” value ([2]; po, 2 weeks) of the same compound?
A: 0.5 fold IC50

Q: What about the “IFN-γ in mouse plasma” value [3, 5] of the same compound?
A: 42 (±14) pg/mL

Q: And the “IL-1β in mouse plasma” value [3, 5]?
A: 2.4 (±0.5) pg/mL

Q: What about the “IL-2 in mouse plasma” value [3, 5] of the same compound?
A: 6.2 (±1.6) pg/mL

Q: What about the “IL-10 in mouse plasma” value [3, 5] of the same compound?
A: 2.9 (±1.4) pg/mL

Q: What about the “IL-13 in mouse plasma” value [3, 5] of the same compound?
A: 37 (±2.9) pg/mL

Q: What about the “IL-17A in mouse plasma” value [3, 5] of the same compound?
A: 15 (±2.4) pg/mL

Q: What about the “IL-22 in mouse plasma” value [3, 5] of the same compound?
A: 35 (±25) pg/mL

Q: And the “IL-23 in mouse plasma” value [3, 5]?
A: 148 (±95) pg/mL

Q: And the “IL-33 in mouse plasma” value [3, 5]?
A: 76 (±58) pg/mL

Q: And the “TNFα in mouse plasma” value [3, 5]?
A: 7.3 (±0.8) pg/mL

Q: What about the “IL-6 in mouse plasma” value ([3]; Local JAK1i group, only one value within detection range) of the same compound?
A: 2.8 (±NA) pg/mL

Q: What about the “IFN-γ in mouse plasma” value [3, 6] of the same compound?
A: 49 (±21) pg/mL

Q: What about the “IL-2 in mouse plasma” value [3, 6] of the same compound?
A: 4.5 (±1.5) pg/mL

Q: What about the “IL-6 in mouse plasma” value [3, 6] of the same compound?
A: 2.9 (±2.3) pg/mL

Q: And the “IL-10 in mouse plasma” value [3, 6]?
A: 2.4 (±0.7) pg/mL

Q: And the “IL-13 in mouse plasma” value [3, 6]?
A: 33 (±13) pg/mL

Q: What about the “IL-17A in mouse plasma” value [3, 6] of the same compound?
A: 15 (±4.2) pg/mL

Q: What about the “IL-22 in mouse plasma” value [3, 6] of the same compound?
A: 42 (±31) pg/mL

Q: And the “IL-23 in mouse plasma” value [3, 6]?
A: 206 (±333) pg/mL

Q: And the “IL-33 in mouse plasma” value [3, 6]?
A: 32 (±17) pg/mL

Q: What about the “TNFα in mouse plasma” value [3, 6] of the same compound?
A: 6.3 (±2.0) pg/mL

Q: And the “IL-1β in mouse plasma” value ([3]; Systemic JAK1i group, only one value within detection range)?
A: 2.0 (±NA) pg/mL

Q: What about the “hypercellularity of skin draining LNs and spleen” value ([4]; systemic (oral 12.5 mg/kg/day, 2 weeks)) of the same compound?
A: drastically reduced

Q: And the “hypercellularity of skin draining LNs and spleen” value ([4]; topical treatment (0.01% cream, 2 weeks))?
A: only marginally affected
